Assay results reported in patent US8426447B2, “Spiro-tricyclic ring compounds as beta-secretase modulators and methods of use” (Amgen Inc., priority 2008, dated 2013).

Columns and labels:
BACE1 [1] = target: T1, BACE1 (Homo sapiens, UniProt P56817); assay: In Vitro Enzymatic BACE FRET (Fluorescence Resonance Energy Transfer) Assay; format: biochemical
Outline: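 Buffer 0.05 M acetate pH 4.2 with 10% DMSO final and 100 uM genapol; reaction started with 50 nM FRET peptide substrate (fluorophore/quencher flanking BACE cleavage site), incubated one hour. Stopped with Tris buffer raising pH to neutrality, then fluorescence read.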

BACE1 [2] = target: T1, BACE1; assay: In Vitro BACE Cell-based Assay (HEK cell assay): Aβ40 in conditioned medium of cells stably expressing Amyloid Precursor Protein, sandwich ELISA
Outline: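 HEK cells stably expressing APP were treated 24 h with compound in 10-point dose response starting at 100 or 10 μM (0.1% DMSO). Secreted Aβ40 quantified by sandwich ELISA (pAb40 capture, biotinylated 6E10 detection, europium time-resolved fluorescence), with IC50 derived from percent inhibition versus concentration.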

[3] = Table IV, class symbols, read-out: BACE1 FRET assay
[4] = Table IV, class symbols, read-out: HEK cell assay
[5] = in vitro BACE FRET enzyme assay, IC50 class symbols, read-out: BACE1 FRET assay
[6] = HEK cell-based assay, Aβ40 in conditioned medium, IC50 class symbols, read-out: HEK cell assay
[7] = HEK cells, read-out: HEK cell assay
[8] = Table II, read-out: BACE1 FRET assay
[9] = Table II, Aβ40, 24 h incubation, read-out: HEK cell assay

T1 sequence (P56817 46-501, species assumed): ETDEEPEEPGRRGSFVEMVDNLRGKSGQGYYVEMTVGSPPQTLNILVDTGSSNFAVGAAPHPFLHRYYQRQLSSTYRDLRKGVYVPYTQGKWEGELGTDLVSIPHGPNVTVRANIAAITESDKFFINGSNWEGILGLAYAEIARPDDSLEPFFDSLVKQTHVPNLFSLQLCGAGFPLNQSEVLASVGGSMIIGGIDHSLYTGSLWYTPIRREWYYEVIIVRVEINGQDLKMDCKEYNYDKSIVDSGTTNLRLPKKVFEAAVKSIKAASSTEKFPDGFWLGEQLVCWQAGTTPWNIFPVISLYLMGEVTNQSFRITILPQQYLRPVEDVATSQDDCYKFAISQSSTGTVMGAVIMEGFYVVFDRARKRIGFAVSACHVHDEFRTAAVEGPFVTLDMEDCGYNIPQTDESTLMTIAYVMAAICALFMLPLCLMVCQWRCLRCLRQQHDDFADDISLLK

`CC(C)(C)COc1ccc2c(c1)[C@]1(COC(N)=N1)c1cc(C(=O)N3CCC3)ccc1O2` [compound 608] showed an IC50 (BACE1 [1]; [3]) of 0.1 to 1 µM and an IC50 (BACE1 [2]; [4]) of 0.1 to 1 µM.

`NC1=N[C@]2(CO1)c1cc(-c3cccnc3F)ccc1Oc1c(F)cccc12` [compound 574] gave an IC50 (BACE1 [1]; [3]) of less than 0.1 µM and an IC50 (BACE1 [2]; [4]) of 0.1 to 1 µM.

`COC(C)(C)CCc1ccc2c(c1)[C@]1(COC(N)=N1)c1cc(-c3cccnc3)ccc1O2` [compound 1001] showed an IC50 (BACE1 [1]; read-out: BACE1 FRET assay) of less than 0.1 µM and an IC50 (BACE1 [2]; read-out: HEK cell assay) of less than 0.1 µM.

Work on `C[Si](C)(C)C#Cc1cnc2c(c1)[C@]1(COC(N)=N1)c1cc(-c3cccnc3)ccc1O2` [compound 348] yielded an IC50 (BACE1 [1]; [5]) of less than 0.1 µM and an IC50 (BACE1 [2]; [6]) of less than 0.1 µM.

Compound `NC1=N[C@]2(CO1)c1cc(-c3ccc(O)cc3)ccc1Oc1ccc(-c3cncnc3)cc12` [compound 890] has an IC50 (BACE1 [1]; [3]) of less than 0.1 µM and an IC50 (BACE1 [2]; [4]) of 0.1 to 1 µM.

With `CC(C)(O)C#Cc1cnc2c(c1)[C@]1(COC(N)=N1)c1cc(-c3cncnc3)ccc1O2` [compound 823] the IC50 (BACE1 [1]; [3]) was less than 0.1 µM and the IC50 (BACE1 [2]; [4]) was less than 0.1 µM.

In the case of `CC(C)(C)COc1ccc2c(n1)[C@@]1(COC(N)=N1)c1cc(-c3cncnc3)ccc1O2` [compound 732], the IC50 (BACE1 [1]; read-out: BACE1 FRET assay) is reported as 1 to 5 µM and the IC50 (BACE1 [2]; read-out: HEK cell assay) is reported as 1 to 5 µM.

For `COC(C)(C)COc1ccc2c(c1)[C@@]1(COC(N)=N1)c1cc(-c3ccccc3)cnc1O2` [compound 818], the IC50 (BACE1 [1]; [3]) was less than 0.1 µM and the IC50 (BACE1 [2]; [4]) was less than 0.1 µM.

Work on `CC(C)(O)C#Cc1ccc2c(c1)[C@@]1(COC(N)=N1)c1cc(C#CC(C)(C)O)cnc1O2` [compound 935] yielded an IC50 (BACE1 [1]; read-out: BACE1 FRET assay) of 0.1 to 1 µM and an IC50 (BACE1 [2]; read-out: HEK cell assay) of 0.1 to 1 µM.

`CC(C)(F)COc1cc2c(cc1F)Oc1ccc(-c3cncnc3)cc1[C@@]21COC(N)=N1` [compound 530] showed an IC50 (BACE1 [1]; read-out: BACE1 FRET assay) of less than 0.1 µM and an IC50 (BACE1 [2]; [7]) of less than 0.1 µM.

With `NC1=N[C@]2(CO1)c1ccccc1Oc1ccc(-c3cccnc3)cc12` [compound 684] the IC50 (BACE1 [1]; read-out: BACE1 FRET assay) was 0.1 to 1 µM and the IC50 (BACE1 [2]; read-out: HEK cell assay) was 0.1 to 1 µM.

Work on `Cc1cncc(-c2ccc3c(c2)[C@@]2(COC(N)=N2)c2cc(OCC(C)(C)C)ccc2O3)c1` [Example 81, (4S)-2′-(2,2-dimethylpropoxy)-7′-(5-methyl-3-pyridinyl)spiro[1,3-oxazole-4,9′-xanthen]-2-amine] yielded an IC50 (BACE1 [1]; [8]) of less than 0.1 µM and an IC50 (BACE1 [2]; [9]) of less than 0.1 µM.

In the case of `NC1=N[C@@]2(CO1)c1cc(-c3cccnc3F)ccc1Oc1cnc(-c3ccccn3)cc12` [compound 516], the IC50 (BACE1 [1]; BACE1 FRET assay (uM)) is reported as less than 0.1 µM and the IC50 (BACE1 [2]; HEK cell assay (uM), HEK cells) is reported as less than 0.1 µM.

With `Cc1cncc(-c2ccc3c(c2)[C@@]2(COC(N)=N2)c2cc(Cl)ncc2O3)c1` [compound 327] the IC50 (BACE1 [1]; [5]) was 0.1 to 1 µM and the IC50 (BACE1 [2]; [6]) was 1 to 5 µM.

`COc1ccc2c(c1)[C@]1(COC(N)=N1)c1cc(Br)cc(F)c1O2` [compound 377] gave an IC50 (BACE1 [1]; [5]) greater than 5 µM and an IC50 (BACE1 [2]; [6]) of 1 to 5 µM.

`CC(=O)Cc1ccc2c(c1)[C@]1(COC(N)=N1)c1cc(-c3cccnc3)ccc1O2` [compound 658] showed an IC50 (BACE1 [1]; [3]) of 0.1 to 1 µM and an IC50 (BACE1 [2]; [4]) of 0.1 to 1 µM.

In the case of `COc1ncccc1-c1ccc2c(c1)[C@@]1(COC(N)=N1)c1cc(OCC(C)(C)C)ccc1O2` [Example 77, (4S)-2′-(2,2-dimethylpropoxy)-7′-(2-methoxy-3-pyridinyl)spiro[1,3-oxazole-4,9′-xanthen]-2-amine], the IC50 (BACE1 [1]; [8]) is reported as less than 0.1 µM and the IC50 (BACE1 [2]; [9]) is reported as 1 to 5 µM.

With `CC1(COc2cnc3c(c2)[C@]2(COC(N)=N2)c2cc(-c4ccccc4)ccc2O3)COC1` [compound 459] the IC50 (BACE1 [1]; read-out: BACE1 FRET assay) was less than 0.1 µM and the IC50 (BACE1 [2]; [7]) was less than 0.1 µM.

Compound `COc1ccc2c(c1)[C@]1(COC(N)=N1)c1cc(C#CC(C)(C)OC)cnc1O2` [compound 901] has an IC50 (BACE1 [1]; [3]) of 1 to 5 µM and an IC50 (BACE1 [2]; [4]) greater than 5 µM.

`CC(C)(C)COc1ccc2c(c1)[C@]1(COC(N)=N1)c1cc(C3=CC4CCC3C4)ccc1O2` (stereo partly shown) [compound 730] gave an IC50 (BACE1 [1]; read-out: BACE1 FRET assay) of less than 0.1 µM and an IC50 (BACE1 [2]; read-out: HEK cell assay) of 1 to 5 µM.

In the case of `CC(C)(C)COc1ccc2c(c1)C1(COC(N)=N1)c1cc(Br)ccc1O2` (stereo not shown) [Example 57, 2′-bromo-7′-(2,2-dimethylpropoxy)spiro[1,3-oxazole-4,9′-xanthen]-2-amine], the IC50 (BACE1 [1]; [8]) is reported as 0.1 to 1 µM and the IC50 (BACE1 [2]; [9]) is reported as 1 to 5 µM.

Compound `CC(C)(C)COc1ccc2c(c1)[C@]1(COC(N)=N1)c1cc(-c3cc(Cl)ccc3F)ccc1O2` [Example 75, (4S)-2′-(5-chloro-2-fluorophenyl)-7′-(2,2-dimethylpropoxy)spiro[1,3-oxazole-4,9′-xanthen]-2-amine] has an IC50 (BACE1 [1]; [8]) of less than 0.1 µM and an IC50 (BACE1 [2]; [9]) of 0.1 to 1 µM.

In the case of `NC1=N[C@]2(CO1)c1cc(-c3ccc(F)nc3)ccc1Oc1ncc(C3=CCOCC3)cc12` [compound 716], the IC50 (BACE1 [1]; read-out: BACE1 FRET assay) is reported as 1 to 5 µM and the IC50 (BACE1 [2]; read-out: HEK cell assay) is reported as 1 to 5 µM.

`N#Cc1cccc(-c2ccc3c(c2)[C@]2(COC(N)=N2)c2cccnc2O3)c1` [compound 610] showed an IC50 (BACE1 [1]; [3]) of 0.1 to 1 µM and an IC50 (BACE1 [2]; [4]) of 1 to 5 µM.

`CC1(C#Cc2cnc3c(c2)[C@]2(COC(N)=N2)c2cc(-c4ccccc4F)ccc2O3)COC1` [compound 520] gave an IC50 (BACE1 [1]; read-out: BACE1 FRET assay) of less than 0.1 µM and an IC50 (BACE1 [2]; [7]) of less than 0.1 µM.

Work on `CC(C)(C)C[C@H](F)c1ccc2c(c1)[C@]1(COC(N)=N1)c1cc(-c3cncnc3)ccc1O2` [116a, (4S)-2′-((1S)-1-fluoro-3,3-dimethylbutyl)-7′-(5-pyrimidinyl)spiro[1,3-oxazole-4,9′-xanthen]-2-amine] yielded an IC50 (BACE1 [1]; Table III, IC50's in uM ranges, read-out: BACE1 FRET assay) of less than 0.1 µM and an IC50 (BACE1 [2]; Table III, IC50's in uM ranges, read-out: HEK cell assay) of 0.1 to 1 µM.
